# Laboratory results reported in patent US12263140B1, “Methods of reducing the production of greenhouse gases from animals” (AGRICULTURAL SCIENCES LIMITED, priority 2023, dated 2025).
# Assays:
# cow pats (faeces) = assay: Fermentation of cow pats from cows drenched with vitamin K1; type: in vivo; details: FIG. 9; no vitamin K1 added to the cow pats
# Procedure: The cows in both fields were of the same breed and provenance.
# The resulting cow pat samples were fermented using the apparatus described in Example 1 and FIG. 1 and gas produced collected and tested. Vitamin K1 was not added to the cow pats.
# An qualitative test was also completed where the smell of the gases in the fermentation chambers were assessed at the end of fermentation.
# [1] = tested on: rumen fluid from live fistulated cows; assay: Fermentation of dried grass with rumen fluid from treated live fistulated cows, 12 hours (Example 11); type: in vivo, cow; details: 36° C., dark, 1 g dried grass
# Procedure: In this trial, samples of rumen fluid from live fistulated cows were collected, passed through butter muslin (cheese cloth) and the fluid transferred to pre-warmed Thermos™ flasks.
# Six fermentation vessels had 1 g of dried grass added to each.
# Three vessels, the Experimentals, were filled with the rumen fluid from the treated cows. The other three vessels, the controls, were filled with rumen fluid from the untreated cows. All vessels were gently incubated at 36° C. in the dark for 12 hours.
# cow rumen fluid = assay: Fermentation of cow rumen fluid and dried grass (hay) in adjustable pressure fermenter; type: cell-based; design: reduction of total gas volume compared to controls, average / reduction of total gas volume compared to controls, minimum / methane emission reduction / methane emission reduction, peak / CO2 volume produced by the fermentation, reduction compared to control samples: concentration or dose not given beside the values; details: for inhibition of vitamin K1 effects on reducing gas production by grass: Example 2
# Text: The aerial parts of the plants were harvested and allowed to dry for a number of days, the number depend on the weather. When air dry the material was steeped in 30% ethanol for one month or more (up to 3 months). It was important to keep the steep in the dark and to have the steep vessels filled and cover tightly to prevent the entry of air. […] Samples of rumen fluid were collected from either slaughtered cows immediately after slaughter. Samples of rumen fluid were collected from the rumen of these cows by cutting the rumen wall using a sterilised knife and allowing the fluid that exuded from the cut to be collected in a sterilised kidney bowl and held in a Dewar flask at body temperature. The rumen fluid was used within one hour of slaughter. It was passed through cheese cloth or similar to filter out the liquid portion for use in this and further trials. […] The rumen fluid was kept in the dark at a temperature of 36° C. at all times during transport and storage.
# The collected rumen fluid samples were mixed with dried grass (hay) to form control samples. […] The prepared samples were then added to a trial fermenter and fermented over time to determine the total amount of gas produced during the fermentation time period along with the CO2 produced and the methane (CH4) production during the trial time period. The tubes were inspected periodically until fermentation stopped. The samples were analysed using gas chromatography (GC) with a permanent gas analysis column, in the order they were made.
# The trial fermenter used is an adjustable pressure fermenter system consisting of two arms (one closed and one open) of a manometric setup fastened to a backplate (not shown).
# Fermentation tube sizes varied from 50 ml to 250 ml. The closed arm was fixed to the supports and was closed at its top end by means of a removable stopper that has a small rubber or synthetic material septum embedded in the centre.
# Samples may be taken from the fermenter using a gas tight microlitre syringe. In use, according to one or more embodiments, the needle of the syringe is able to be inserted through the septum to take samples of fermenting fluid or gas for analysis by gas chromatography.
# The arms were free to move up or down so that the pressure in the closed arm could be brought to atmospheric pressure, which occurred when the fluid levels in both arms were at equal heights.
# For all early trials lab scale (50 ml) fermenters were used. Up to 20 fermenters could be used at the same time thus giving more reliable replications for statistical analysis. The tubes were held in a water bath held at a temperature of 36° C. with light excluded by a light-proof cover on the bath. The tubes were gently agitated during the fermentation.
# The synthetic material was produced by the oxidation of 2-methylnaphthalene to 2-methyl-1,4-naphthoquinone with chromium trioxide in sulphuric and acetic acids. Trials were completed using the above trial fermenter and method using rumen fluid as described in Example 1.
# To investigate this, fermentations were completed using the apparatus described in Example 1 and FIG. 1 using samples of fresh cow rumen fluid and dried grass, according to one or more embodiments.
smiles,measurement,setting,value
CC1=C(C/C=C(\C)CCC[C@H](C)CCC[C@H](C)CCCC(C)C)C(=O)c2ccccc2C1=O [vitamin K1],vitamin K1 effect on gas production carried through to faeces,cow pats (faeces),still active in the faeces
same,"CO2, of controls",[1],39.35%
same,"methane formation, of controls",[1],25.6%
same,"total gas volume, of controls",[1],25.6%
same,"CO2 volume produced by the fermentation, reduction compared to control samples",cow rumen fluid,83.4%
same,inhibition of vitamin K1 effects on reducing gas production by grass,cow rumen fluid; grass fermented immediately after harvest,total
same,inhibition of vitamin K1 effects on reducing gas production by grass,cow rumen fluid; older (3+ day old) grass,only a small inhibitory effect
same,gas volume produced,"cow rumen fluid; Example 9, Trial 4, vitamin K1 and sulphide both added",consistent with and even slightly higher than control
same,methane emission reduction,cow rumen fluid; further trials,66.7%
same,"reduction of total gas volume compared to controls, average",cow rumen fluid; further trials,80.2%
same,"reduction of total gas volume compared to controls, maximum",cow rumen fluid; further trials,94.5%
same,"reduction of total gas volume compared to controls, minimum",cow rumen fluid; further trials,75.9%
same,"methane emission reduction, peak","cow rumen fluid; further trials, under specific conditions",91%
